Where “and” joins values, the source holds several entries; their conditions need not be identical. Equal entries are not always repeated. Where two headings read alike, the source gives them in different places.
What was measured:
[1] = test system: testosterone-enhanced ventral prostate and seminal vesicle weights; experiment: Ventral Prostate and Seminal Vesicle Weight in vivo Assay; set-up: species or system rat; conditions: immature castrated male Sprague Dawley rats, once daily for five days, usually orally 40 mg/kg, with testosterone propionate 2 mg/kg s.c. Also: key: 'active' if the non weight adjusted prostate weight was ≦40 mg or the % Inhibition prostate weight, body weight adjusted was ≧40% @ 2 mg/day dosage; ID50's, if determined, of ≦15 mg/day also indicated an 'active' compound; listed herein as 'inactive' as they did not meet the specified criteria defined above.
How it was run: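 Wet weights of ventral prostate and seminal vesicles were taken on day six. Castrated immature male Sprague Dawley rats had received five daily doses of testosterone propionate (2 mg/kg s.c.) together with test compound, typically 40 mg/kg orally. Activity was scored from absolute prostate weight or body-weight-adjusted % inhibition.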

[2] = molecular target: T1, androgen receptor (AdEasy+rAR, L929 cells) (Rattus norvegicus, UniProt P15207); experiment: L929 Androgen Receptor Functional Assay, Adenovirus Transduction; assay type: cell-based; conditions: for % Activity, L929 androgen receptor functional assay / EC50: agonist testing; for inhibition at 3 µM: L929, antagonist testing with R1881, 3000 nM; for IC50: antagonist testing with R1881; for % Inhibition, L929 androgen receptor functional assay: antagonist testing with R1881, 3000 nM
T1 construct: expressed in transfected cells; host or cells: L929 cells transduced with adenovirus AdEasy+rAR
T1 sequence (P15207 1-902): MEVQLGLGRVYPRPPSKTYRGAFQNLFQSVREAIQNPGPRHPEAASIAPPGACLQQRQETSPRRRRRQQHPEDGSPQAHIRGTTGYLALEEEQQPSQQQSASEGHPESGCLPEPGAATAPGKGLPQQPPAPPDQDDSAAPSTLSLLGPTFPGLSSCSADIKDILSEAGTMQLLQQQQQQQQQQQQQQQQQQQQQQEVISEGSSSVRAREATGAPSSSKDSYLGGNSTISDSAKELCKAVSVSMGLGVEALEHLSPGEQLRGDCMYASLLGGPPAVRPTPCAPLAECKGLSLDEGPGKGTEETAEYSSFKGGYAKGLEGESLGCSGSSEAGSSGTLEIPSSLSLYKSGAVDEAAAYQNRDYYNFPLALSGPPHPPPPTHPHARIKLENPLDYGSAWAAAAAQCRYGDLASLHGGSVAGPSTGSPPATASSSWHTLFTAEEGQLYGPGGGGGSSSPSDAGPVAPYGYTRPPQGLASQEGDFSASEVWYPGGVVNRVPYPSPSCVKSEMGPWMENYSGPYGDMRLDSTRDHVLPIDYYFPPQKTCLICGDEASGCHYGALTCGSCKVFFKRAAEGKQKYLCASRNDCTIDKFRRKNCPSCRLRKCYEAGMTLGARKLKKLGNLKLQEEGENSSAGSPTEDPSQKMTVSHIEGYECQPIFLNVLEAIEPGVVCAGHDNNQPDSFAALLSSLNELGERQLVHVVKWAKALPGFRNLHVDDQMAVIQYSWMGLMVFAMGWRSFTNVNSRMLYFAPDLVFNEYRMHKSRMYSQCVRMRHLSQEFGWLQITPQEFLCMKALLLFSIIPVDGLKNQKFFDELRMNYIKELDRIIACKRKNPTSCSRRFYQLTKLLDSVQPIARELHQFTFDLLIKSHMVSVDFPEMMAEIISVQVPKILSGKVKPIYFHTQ
How it was run: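 Luminescent reporter readout after 48 h at 37 °C: rat AR delivered by adenovirus (AdEasy+rAR, moi 1:500) into L929 cells grown without phenol red in charcoal-treated serum. Antagonist wells also received R1881 (2.5× dilution at 2.5 nM).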

[3] = molecular target: T2, androgen receptor (AdEasy+rAR, COS-7 cells) (Rattus norvegicus, UniProt P15207); experiment: COS-7 Whole-Cell Androgen Receptor Binding Assay, Adenovirus Transduction; conditions: for % Inhibition, COS Binding / inhibition at 3 µM: concentration of 3000 nM; for % Inhibition, COS Binding: 3 µM
T2 construct: expressed in transfected cells; host or cells: COS-7 cells transduced with adenovirus AdEasy+rAR
T2 sequence (P15207 1-902): T1 sequence (P15207 1-902)
Protocol: COS-7 cells were plated in 96-well plates at 20,000 cells per well, in a solution of DMEM/F12 (GIBCO) containing 10% (v/v) charcoal-treated fetal bovine serum (Hyclone) and lacking phenol red. The cells were then incubated overnight at 37° C. in 5% (v/v) humidified CO2.
Test compound solutions were prepared by diluting the test compound in 100% (v/v) DMSO, if necessary.
Next, 1 mL of DMEM/F12 lacking phenol red was pipetted into each of the wells of a 2-mL 96-well assay block. […] The wells were carefully mixed by pipette.
In a 15 mL or 50 mL sterile centrifuge tube, a dilution in DMEM/F12 of the adenovirus AdEasy+rAR at a moi of 1:50 per well was prepared.
The medium was removed from the 96-well plates by inversion and the plates dried very briefly, inverted, on a sterile towel. As soon as possible after medium removal, 40 μL of the diluted test compound was added to each well, in duplicate. […] The plates were then incubated for 48 hours at 37° C. in 5% (v/v) humidified CO2.
The medium was removed from the above incubated plates by inversion and dried. Each well was then washed with 0.35 mL of 1× PBS. The PBS was then removed from the plates by inversion and the plates dried.
To each well was then added 50 μL of 0.5% (v/v) Triton X-100 (Sigma) in 1× PBS and the plates placed on a rotary shaker for 5 min. The contents of each well were then transferred to an OptiPlate-96 (Packard) scintillation plate. To each well was then added 0.2 mL of Microscint-20 (Packard) and the wells counted on a TopCount (Packard).
Percent inhibition was determined by testing dilutions of the test compound (usually duplicates of 10 μM) in the binding assay. Counts per well were measured and percents of inhibition determined. […] Counts per well were measured and IC50s determined by linear regression.

[4] = read-out: IC50 (nM), COS Binding

SMILES | active / inactive: inhibition of testosterone-enhanced prostate weight [1] | % Activity, L929 androgen receptor functional assay ([2]; 3000 nM, 3 µM) | % Inhibition, COS Binding [3] | inhibition at 3 µM [2] [%] | EC50 [2] [nM] | % Activity, L929 androgen receptor functional assay ([2]; 3000 nM) [%] | % Activity, L929 androgen receptor functional assay ([2]; @ 8000 nM) | IC50 [2] | % Inhibition, L929 androgen receptor functional assay ([2]; 3 µM) [%] | inhibition at 3 µM [3] [%] | IC50 [3, 4] | IC50 ([3]; IC50 (nM), COS Binding) [nM]
CCSCC(C)(O)c1cc2cc(F)c(C(F)(F)F)cc2[nH]1 (racemic) [Compound 206] | active | 5% | −40% | – | – | – | – | – | – | – | – | –
CC(O)(CSCC(F)(F)F)c1cc2cc([N+](=O)[O-])c(C(F)(F)F)cc2[nH]1 (single isomer, unassigned) [Compound 202] | active | 1% | 50% | – | – | – | – | – | – | – | – | –
CCSCC(C)(O)c1cc2cc(C#N)c(C(F)(F)F)cc2[nH]1 (single isomer, unassigned) [Compound 217, 2-(2-Ethylsulfanyl-1-hydroxy-1-methyl-ethyl)-6-trifluoromethyl-1H-indole-5-carbonitrile] | active | – | 38% and 61% and 69% | 87 | > 8000 | 5 | 0 @ 8000 nM % | 969 nM and 415 nM and 810 nM | 80 | – | – | –
CCS(=O)(=O)CC(C)(O)c1cc2cc(C#N)c(C(F)(F)F)cc2[nH]1 (single isomer, unassigned) [Compound 222, 2-(2-Ethanesulfonyl-1-hydroxy-1-methyl-ethyl)-6-trifluoromethyl-1H-indole-5-carbonitrile] | active | – | – | 61 | > 8000 | – | 0 @ 8000 nM % | 2410 nM | – | 42 | 1580 nM | –
CCSCC(C)(O)c1cc2cc([N+](=O)[O-])c(C(F)(F)F)cc2n1C (single isomer, unassigned) [Compound 231] | active | 0% and −1% | 78% | – | – | – | – | 3180 nM | – | 73 | 665 nM and > 3000 nM | –
CCSCC(C)(O)c1[nH]c2cc(C(F)(F)F)c(C#N)cc2c1C (single isomer, unassigned) [Compound 233, 2-(2-Ethylsulfanyl-1-hydroxy-1-methyl-ethyl)-3-methyl-6-trifluoromethyl-1H-indole-5-carbonitrile] | active | 0% | 95% and 81% | 97 | – | – | – | 69.2 nM | – | – | 45.6 nM | –
CCSCC(C)(O)c1[nH]c2cc(C(F)(F)F)c(C#N)cc2c1C (single isomer, unassigned) [Compound 234, 2-(2-Ethylsulfanyl-1-hydroxy-1-methyl-ethyl)-3-methyl-6-trifluoromethyl-1H-indole-5-carbonitrile] | inactive | −1% | 71% | – | – | – | – | 215 nM | 99 | – | 539 nM | –
CCS(=O)(=O)CC(C)(O)c1[nH]c2cc(C(F)(F)F)c(C#N)cc2c1C (single isomer, unassigned) [Compound 251, 2-(2-Ethanesulfonyl-1-hydroxy-1-methyl-ethyl)-3-methyl-6-trifluoromethyl-1H-indole-5-carbonitrile] | active | −1% | – | – | – | – | – | 200 nM | – | 85 | 220 nM | –
CCS(=O)(=O)CC(C)(O)c1[nH]c2cc(C(F)(F)F)c(C#N)cc2c1C (single isomer, unassigned) [Compound 252] | active | 1% | 68% | – | – | – | – | 3100 nM | 65 | – | > 3000 nM | –
CC(O)(CSc1ccccc1N)c1cc2cc(Cl)c(C(F)(F)F)cc2[nH]1 (stereo not shown) [Compound 123] | inactive | – | – | – | – | −4 | 1 @ 8000 nM % | – | – | – | > 3000 nM | –
CN(C)c1ccc(SCC(C)(O)c2cc3cc(Cl)c(C(F)(F)F)cc3[nH]2)cc1 (stereo not shown) [Compound 124] | inactive | – | – | – | – | −4 | – | – | – | – | > 3000 nM | –
CN(C)c1ccccc1SCC(C)(O)c1cc2cc(Cl)c(C(F)(F)F)cc2[nH]1 (stereo not shown) [Compound 127] | inactive | – | 41% and 74% | – | – | −5 | – | – | – | – | > 1200 nM | –
CC(O)(CSc1ccc(C(=O)O)cc1)c1cc2cc(Cl)c(C(F)(F)F)cc2[nH]1 (stereo not shown) [Compound 133] | inactive | – | – | 19 | – | −4 | – | – | – | 65 | – | > 1500
CC(O)(CS(C)(=O)=O)c1cc2cc(Cl)c(C(F)(F)F)cc2n1S(C)(=O)=O (stereo not shown) [Compound 137] | inactive | – | – | 77 | – | 0 | – | – | – | 73 | – | > 1500
CCSCC(C)(O)c1cc2cc(F)c(C(F)(F)F)cc2[nH]1 (stereo not shown) [Compound 159] | active | – | – | – | – | 2 | – | – | – | – | 240 nM | –
CCCS(=O)(=O)CC(C)(O)c1cc2cc([N+](=O)[O-])c(C(F)(F)F)cc2[nH]1 (stereo not shown) [Compound 177] | active | – | – | 89 | – | 2 | – | – | – | 90 | 88 nM | –
CCC(O)(CSCC(F)(F)F)c1cc2cc([N+](=O)[O-])c(C(F)(F)F)cc2[nH]1 (stereo not shown) [Compound 185] | active | – | – | 97 | – | 2 | – | – | – | 92 | 61 nM | –
CC(O)(CSCC(F)(F)F)c1cc2cc(F)c(C(F)(F)F)cc2[nH]1 (stereo not shown) [Compound 189] | inactive | – | – | 85 | – | 3 | – | – | – | 100 | 280 nM | –
CC(O)(CSCC(F)(F)F)c1cc2cc(Cl)c(C(F)(F)F)cc2[nH]1 (stereo not shown) [Compound 190] | active | – | – | 97 | – | 1 | – | – | – | 100 | 292 nM | –

From patent US7282507B2, “Indole derivatives as selective androgen receptor modulators (SARMS)” (Janssen Pharmaceutica N.V., priority 2004, dated 2007)
